# Test results: patent US5382679A, “Process for the preparation of glutathione S-acyl derivatives, compounds obtained from said process and an intermediate useful for the preparation thereof” (Boehringer Mannheim Italia S.p.A., priority 1990, dated 1995)
# Legend:
# [1] = Enzymatic hydrolysis of thioester bond in serum; format: in vitro ADME; conditions: GSH derivative 0, 16 mM, mean ± SD on 6 tests
# Source text: (§1) |The enzymatic hydrolysis specific activity of thioester |bond is expressed as -SH released nmoles/min/mg of […]. […] Spontaneous hy- |drolysis of the substrates ranges from 1% to 10% maxi- |mum. […] |sts.
# [2] = Enzymatic hydrolysis of thioester bond in cytosol; format: in vitro ADME; conditions: GSH derivative 0, 16 mM; for enzymatic hydrolysis specific activity of thioester bond, Cytosol: mean ± SD on 6 tests
# Source text: as §1
"enzymatic hydrolysis specific activity of thioester bond, Cytosol [2]","Ratio (intracellular to extracellular hydrolysis rate, Cytosol/Serum) [2]",SMILES,"enzymatic hydrolysis specific activity of thioester bond, Serum [1]"
"1,45 ± 0,8 -SH released nmoles/min/mg of","18,5",CCOC(=O)CNC(=O)[C@H](CSC(=O)c1ccccc1)NC(=O)CC[C@H](N)C(=O)OCC [S-benzoyl-diethylester],"0,07 ± 0,005 -SH released nmoles/min/mg of"
"10,8 ± 1,5 -SH released nmoles/min/mg of",,"CC(=O)SC[C@H](NC(=O)CC[C@H](N)C(=O)O)C(=O)NCC(=O)O [S-acetyl, γ-L-glutamyl-S-acetyl-L-cysteinyl-glycine]",0 -SH released nmoles/min/mg of
"3,2 ± 1,1 -SH released nmoles/min/mg of","80,0","N[C@@H](CCC(=O)N[C@@H](CSC(=O)c1ccccc1)C(=O)NCC(=O)O)C(=O)O [S-benzoyl, γ-L-glutamyl-S-benzoyl-L-cysteinyl-glycine]","0,04 ± 0,005 -SH released nmoles/min/mg of"
"6,9 ± 0,7 -SH released nmoles/min/mg of",,"CC(C)(C)C(=O)SC[C@H](NC(=O)CC[C@H](N)C(=O)O)C(=O)NCC(=O)O [S-pivaloyl, γ-L-glutamyl-S-pivaloyl-L-cysteinyl-glycine]",0 -SH released nmoles/min/mg of
"0,6 ± 0,08 -SH released nmoles/min/mg of","6,0","CCOC(=O)CNC(=O)[C@H](CSC(=O)c1ccccc1)NC(=O)CC[C@H](N)C(=O)O [S-benzoyl-monoethylester, ethyl γ-L-glutamyl-S-benzoyl-L-cysteinyl glycinate]","0,10 ± 0,004 -SH released nmoles/min/mg of"
"6,7 ± 0,9 -SH released nmoles/min/mg of","134,0","N[C@@H](CCC(=O)N[C@@H](CSC(=O)Cc1ccccc1)C(=O)NCC(=O)O)C(=O)O [S-phenylacetyl, γ-L-glutamyl-S-phenylacetyl-L-cysteinyl-glycine]","0,05 ± 0,003 -SH released nmoles/min/mg of"
